Assay results taken from ChEMBL document CHEMBL5244230, “Artemisinin-derived hybrids and their anticancer activity” (Eur J Med Chem, 2020).

Tests used:
[1] = Antiproliferative activity against mouse P388 cells assessed as reduction in cell viability measured after 72 hrs; assay type: functional, cell-based; conditions: time 72 hrs
HL-60 = test: Antiproliferative activity against human HL-60 cells assessed as reduction in cell viability measured after 72 hrs; assay type: functional, cell-based; conditions: HL-60, time 72 hrs
P388/ADR = test: Antiproliferative activity against mouse P388/ADR cells assessed as reduction in cell viability measured after 72 hrs; assay type: functional, cell-based; conditions: time 72 hrs
[2] = Antiproliferative activity against human MRC5 cells assessed as reduction in cell viability; assay type: toxicity, cell-based
HCT-116 [3] = test: Antiproliferative activity against human HCT-116 cells assessed as reduction in cell viability; assay type: functional, cell-based; conditions: Homo sapiens, HCT-116
MDA-MB-231 [4] = test: Antiproliferative activity against human MDA-MB-231 cells assessed as reduction in cell viability; assay type: functional, cell-based
HT-29 = test: Antiproliferative activity against human HT-29 cells assessed as reduction in cell viability; assay type: functional, cell-based
KB = test: Antiproliferative activity against human KB cells; assay type: functional, cell-based
HepG2 = test: Antiproliferative activity against human HepG2 cells; assay type: functional, cell-based
MV4-11 = test: Antiproliferative activity against human MV4-11 cells; assay type: functional, cell-based
A549 = test: Antiproliferative activity against human A549 cells; assay type: functional, cell-based
HCT-116 [5] = test: Antiproliferative activity against human HCT-116 cells; assay type: functional, cell-based
K562 = test: Antiproliferative activity against human K562 cells; assay type: functional, cell-based
PC-3 = test: Antiproliferative activity against human PC-3 cells; assay type: functional, cell-based
A-431 = test: Antiproliferative activity against human A-431 cells; assay type: functional, cell-based
MDA-MB-231 [6] = test: Antiproliferative activity against human MDA-MB-231 cells; assay type: functional, cell-based; conditions: Homo sapiens, MDA-MB-231
COLO 205 = test: Antiproliferative activity against human COLO 205 cells; assay type: functional, cell-based
HEK293 = test: Antiproliferative activity against human HEK293 cells; assay type: functional, cell-based

C[C@H]1[C@H](OC(=O)CCC(=O)N2CCN(C)CC2)O[C@@H]2O[C@]3(C)CC[C@H]4[C@H](C)CC[C@@H]1[C@@]24OO3
GI50 [1]: 231 nM
GI50 (HL-60): 231 nM
GI50 (P388/ADR): 231 nM

CC(C)N1CCN(C(=O)CCC(=O)O[C@@H]2O[C@@H]3O[C@]4(C)CC[C@H]5[C@H](C)CC[C@@H]([C@H]2C)[C@@]35OO4)CC1
GI50 [1]: 231 nM
GI50 (HL-60): 231 nM
GI50 (P388/ADR): 231 nM

C[C@H]1[C@H](OCCCn2cc(COc3cccc4c(C(F)(F)F)cc(=O)oc34)nn2)O[C@@H]2O[C@@]3(C)CC[C@H]4[C@H](C)CC[C@@H]1[C@@]24OO3
IC50 [2]: 430 nM
IC50 (HCT-116 [3]): 430 nM
IC50 (MDA-MB-231 [4]): 430 nM
IC50 (HT-29): 430 nM

Cc1c(C)c2cccc(OCc3cn(CCO[C@@H]4O[C@@H]5O[C@@]6(C)CC[C@H]7[C@H](C)CC[C@@H]([C@H]4C)[C@@]57OO6)nn3)c2oc1=O
IC50 [2]: 430 nM
IC50 (HCT-116 [3]): 430 nM
IC50 (MDA-MB-231 [4]): 430 nM
IC50 (HT-29): 430 nM

Cc1cn([C@H]2C[C@H](n3cc(CNC(=O)CC(C)CC(=O)O[C@@H]4O[C@@H]5O[C@@]6(C)CC[C@H]7[C@H](C)CC[C@@H]([C@H]4C)[C@@]57OO6)nn3)[C@@H](CO)O2)c(=O)[nH]c1=O (stereo partly specified)
IC50 (KB): 47600 nM
IC50 (HepG2): 47600 nM

Cc1cn([C@H]2C[C@H](n3cc(CNC(=O)CCCC(=O)O[C@@H]4O[C@@H]5O[C@@]6(C)CC[C@H]7[C@H](C)CC[C@@H]([C@H]4C)[C@@]57OO6)nn3)[C@@H](CO)O2)c(=O)[nH]c1=O
IC50 (KB): 47600 nM
IC50 (HepG2): 47600 nM

C[C@H]1[C@@H](OC(=O)CCC(=O)NCCCNc2c3c4ccccc4nc-3n(C)c3ccccc23)O[C@@H]2O[C@@]3(C)CC[C@H]4[C@H](C)CC[C@@H]1[C@@]24OO3
IC50 (MV4-11): 72 nM
IC50 (A549): 72 nM
IC50 (HCT-116 [5]): 72 nM

C[C@H]1[C@@H](OC(=O)CCC(=O)NCC(C)(C)CNc2c3c4ccccc4nc-3n(C)c3ccc(Cl)cc23)O[C@@H]2O[C@@]3(C)CC[C@H]4[C@H](C)CC[C@@H]1[C@@]24OO3
IC50 (MV4-11): 72 nM
IC50 (A549): 72 nM
IC50 (HCT-116 [5]): 72 nM

C[C@H]1[C@@H](OCc2cn(-c3ccc(C#N)cc3)nn2)O[C@@H]2O[C@]3(C)OO[C@]24[C@H]1CC[C@@H](C)[C@@H]4C[C@H]3O
IC50 (A549): 25300 nM
IC50 (K562): 25300 nM
IC50 (PC-3): 25300 nM
IC50 (A-431): 25300 nM
IC50 (MDA-MB-231 [6]): 25300 nM
IC50 (COLO 205): 25300 nM
IC50 (HEK293): 25300 nM

Cc1cn([C@H]2C[C@H](n3cc(COC(=O)CCCC(=O)O[C@@H]4O[C@@H]5O[C@@]6(C)CC[C@H]7[C@H](C)CC[C@@H]([C@H]4C)[C@@]57OO6)nn3)[C@@H](CO)O2)c(=O)[nH]c1=O
IC50 (KB): 16500 nM
IC50 (HepG2): 16500 nM

COC(=O)c1ccc2c(c1)c(NCCCNC(=O)CCC(=O)O[C@H]1O[C@@H]3O[C@@]4(C)CC[C@H]5[C@H](C)CC[C@@H]([C@H]1C)[C@@]35OO4)c1c3ccccc3nc-1n2C
IC50 (MV4-11): 72 nM
IC50 (A549): 72 nM
IC50 (HCT-116 [5]): 72 nM

C[C@H]1[C@@H](OCCn2cc(COc3cccc(O)c3)nn2)O[C@@H]2O[C@@]3(C)CC[C@H]4[C@H](C)CC[C@@H]1[C@@]24OO3
IC50 (A549): 18000 nM
IC50 (K562): 18000 nM
IC50 (PC-3): 18000 nM
IC50 (A-431): 18000 nM
IC50 (MDA-MB-231 [6]): 18000 nM
IC50 (COLO 205): 18000 nM
IC50 (HEK293): 18000 nM

C[C@H]1[C@@H](OC(=O)CCC(=O)NCCCNc2c3ccccc3nc3c2[nH]c2ccccc23)O[C@@H]2O[C@@]3(C)CC[C@H]4[C@H](C)CC[C@@H]1[C@@]24OO3
IC50 (MV4-11): 286 nM
IC50 (A549): 286 nM
IC50 (HCT-116 [5]): 286 nM

Cc1cc(=O)oc2c(OCc3cn(CCCO[C@@H]4O[C@@H]5O[C@@]6(C)CC[C@H]7[C@H](C)CC[C@@H]([C@H]4C)[C@@]57OO6)nn3)cccc12
IC50 [2]: 430 nM
IC50 (HCT-116 [3]): 430 nM
IC50 (MDA-MB-231 [4]): 430 nM
IC50 (HT-29): 430 nM

CC1=CN([C@H]2C[C@H](n3cc(-c4cccc(NC(=O)CCC(=O)O[C@@H]5O[C@@H]6O[C@@]7(C)CC[C@H]8[C@H](C)CC[C@@H]([C@H]5C)[C@@]68OO7)c4)nn3)[C@@H](CO)O2)C(C)NC1=O (stereo partly specified)
IC50 (KB): 47600 nM
IC50 (HepG2): 47600 nM

Cc1c(C)c2cccc(OCc3cn(CCCO[C@@H]4O[C@@H]5O[C@@]6(C)CC[C@H]7[C@H](C)CC[C@@H]([C@H]4C)[C@@]57OO6)nn3)c2oc1=O
IC50 [2]: 430 nM
IC50 (HCT-116 [3]): 430 nM
IC50 (MDA-MB-231 [4]): 430 nM
IC50 (HT-29): 430 nM
